Laboratory results reported in patent US20250213547A1, “METHODS OF TREATING NEUROLOGICAL DISEASES” (priority 2022, published 2025).
Read-outs that look alike come from different tables or passages of the source.

Columns and labels:
[1] = system: plasma 24HC; experiment: Multiple rising dose study: pharmacodynamics, plasma 24HC; type: in vivo, human
Method: An 8 mL blood sample was collected to obtain plasma 24HC levels for PD analysis on day 1 and day 14 at 30 minutes pre-dose and at 30 minutes, and 1, 2, 4, 8, 12, 16, and 24 hours post-dose. The mean 24-hour area under the effect curve (AUEC24), presented as the percent change in 24HC from baseline, for doses 100, 300, and 400 mg were −46.8, −61.9, and −62.7, respectively. […] Example 7 below further describes the study's PD protocol and trial results, including safety (example 8).
Plasma 24HC collection and measurement were as described in example 5, with the exception that the 30—minute pre-dose sampling occurred on day 1, 7, 12, 13 and 14, and the 24-hour sampling occurred on day 1 and 14. Assay quality control measures, parameter and statistical analyses were performed as described in example 5. […] Subjects in the 300 mg BID and 600 mg QD cohorts discontinued treatment after day 10 due to some subjects experiencing adverse effects.

[2] = Adult DEE patients (Part A/Part B): safety and tolerability; type: in vivo, human
Description: The third clinical trial was a randomized, double-blind, placebo controlled study. […] After the completion of Part A, 16 patients continued in Part B with open-label treatment for 60 additional days. Patients were included in the trial if they were 18-65 years of age with an established diagnosis of DEE, such as Lennox-Gastaut syndrome, Dravet syndrome, or tuberous sclerosis complex. For enrollment, patients were required to have had at least two bilateral motor seizures per month in the three months prior. In addition, during the 4-week baseline period prior to dosing, patients were required to have incurred at least one bilateral motor seizure. Exclusion criteria included abnormal ECG, degenerative eye disease, or admission to emergency care for treatment of status epilepticus that required mechanical ventilation.
Only patients having at least one bilateral seizure during the baseline study were eligible to continue. […] The range of seizure types included tonic-clonic, drop seizures, tonic, atonic, bilateral clonic, myoclonic-atonic, myotonic-tonic-clonic, and focal seizures. Aside from seizure history, subjects were also enrolled based on an establish diagnosis of DEE, such as Lennox-Gastaut syndrome (LGS) and Dravet syndrome (DS), tuberous sclerosis complex, and a history of special education or an overall intellectual quotient of <70. […] Subjects could continue taking 1-4 anti-seizure medicines (ASM), with the exception of stiripentol, during the study. […]
The safety and tolerability assessments included blood pressure, heart rate, respiratory rate, temperature, treatment-emergent adverse effects, clinical laboratory tests, electrocardiogram data, neurological and ophthalmic examination, and the Columbia-suicide severity rating scale (C-SSRS).
Patients were dosed 100 mg, 200 mg, or 300 mg BID. Dosage (mg BID) in each interval reflects the final dose during that interval. Fields showing 0 mg in days 1-10, 11-20, and 21-30 intervals are patients who were assigned to the placebo group in Part A of the study.

[3] = Healthy Japanese subjects, Part 1 (single dose 200, 600, 1200 mg tablets): PK of TAK-935 and M-I; type: in vivo, human; conditions: plasma; for Vd/F: read-out: Vz/F; for half-life: read-out: t1/2z (terminal disposition phase half-life) (converted); for AUC: read-out: Mean AUC24
Method: This study consisted of 2 parts, and was a randomized, double-blind, placebo-controlled study to assess safety, tolerability, and PK and PD of TAK-935 when administered orally in healthy Japanese subjects.
On Day 1 of each dose level, a single dose of TAK-935 or placebo was administered, and safety, PK and PD were evaluated.
After the screening visit, eligible participants checked—in on Day-2. On Day 1, eligible participants were randomized 6:2 to TAK-935 or placebo in each dose group in double-blinded fashion. No stratification variables were used for randomization. On the same day, study drug was administered by oral administration of single dosing of TAK-935 to each cohort at each dose level. The subjects were discharged on Day 3. Intensive PK samplings were performed from Day 1 to Day 3.
Subjects received a single dose of TAK-935 or placebo of 200 mg, 600 mg, or 1200 mg with 150 mL of water, after fasting for at least 10 hours and remained fasted until 4 hours after dosing.
Blood samples for PK analysis of TAK-935 and its metabolites (M-I) were collected into blood collection tubes (vacutainer) containing the anticoagulant K2EDTA (Table 40e and Table 40f).
The PK parameters of TAK-935 and its metabolites (M-I) were determined from the concentration-time profiles for all evaluable subjects. Actual sampling times, rather than scheduled sampling times, were used in all computations involving sampling times. The following PK parameters were calculated from plasma concentrations of TAK-935 and its metabolites (M-I), unless otherwise specified: […]

[4] = Adult DEE patients (Part A/Part B): safety and tolerability; conditions: human, in vivo, 60 days
[5] = TAK-935 200 mg single dose, mean
[6] = TAK-935 600 mg single dose, mean
[7] = TAK-935 1200 mg single dose, mean
[8] = human, oral, TAK-935 200 mg single dose, mean
[9] = human, oral, TAK-935 600 mg single dose, mean
[10] = human, oral, TAK-935 1200 mg single dose, mean
[11] = human, oral, TAK-935, single dose 200 mg
[12] = human, oral, TAK-935, single dose 600 mg
[13] = human, oral, TAK-935, single dose 1200 mg

With `O=C(c1cccnc1-c1ccncc1)N1CCC(O)(Cc2ccccc2)CC1` [soticlestat] the “24HC AUEC24, mean, percent change from baseline (day −1)” value (“24HC AUEC24, mean, percent change” for short) ([1]; 100 mg QD day 1) was −8.15%, the “24HC E24, mean, percent change from baseline (day −1)” value (“24HC E24, mean, percent change” below) ([1]; 100 mg QD day 1) was −20.9% and the “24HC AUEC24, mean, percent change” value ([1]; 100 mg QD day 14) was −46.8%. The “24HC E24, mean, percent change” value ([1]; 100 mg QD day 14) was −49.1%, the “24HC AUEC24, mean, percent change” value ([1]; 300 mg BID day 1) was −6.90% and the “24HC E24, mean, percent change” value ([1]; 300 mg BID day 1) was −10.5%. The “24HC AUEC24, mean, percent change” value ([1]; 300 mg QD day 1) was −12.7%, the “24HC E24, mean, percent change” value ([1]; 300 mg QD day 1) was −22.4% and the “24HC AUEC24, mean, percent change” value ([1]; 300 mg QD day 14) was −61.9%. The “24HC E24, mean, percent change” value ([1]; 300 mg QD day 14) was −63.8%, the “24HC AUEC24, mean, percent change” value ([1]; 400 mg QD day 1) was −11.7% and the “24HC E24, mean, percent change” value ([1]; 400 mg QD day 1) was −28.4%. For the same molecule, the “24HC AUEC24, mean, percent change” value ([1]; 400 mg QD day 14) was −62.7%, the “24HC E24, mean, percent change” value ([1]; 400 mg QD day 14) was −65.6% and the “24HC AUEC24, mean, percent change” value ([1]; 600 mg QD day 1) was −14.0%. The “24HC E24, mean, percent change” value ([1]; 600 mg QD day 1) was −30.6%, the “Upper respiratory tract infection, n participants” value ([2]; Part A, soticlestat (n = 14)) was 2 n and the “Upper respiratory tract infection, n participants” value ([2]; Part B open-label, all (n = 16)) was 1 n. For the same molecule, the “Dysarthria, n participants” value ([2]; human, in vivo, 30 days) was 3 n, the “Fatigue, n participants” value ([2]; human, in vivo, 30 days) was 2 n and the “Headache, n participants” value ([2]; human, in vivo, 30 days) was 2 n. The “Lethargy, n participants” value ([2]; human, in vivo, 30 days) was 2 n, the TEAE incidence ([2]; human, in vivo, 30 days) was 71.4% and the deaths ([2]; soticlestat arm) was “no deaths”. For the same molecule, the CL/F [3, 5] was 470.8 L/h, the Lambda z [3, 5] was 0.1608 h⁻¹ and the “AUC∞” value [3, 6] was 3917 ng·h/mL. For the same molecule, the CL/F [3, 6] was 178.4 L/h, the Lambda z [3, 6] was 0.1634 h⁻¹ and the Tmax ([3]; TAK-935 600 mg single dose, median) was 30 min. For the same molecule, the CL/F [3, 7] was 119.8 L/h, the Lambda z [3, 7] was 0.1922 h⁻¹ and the AUC(0-inf) [3, 8] was 720 ng·h/mL. It also gave an AUC(0-t) [3, 8] of 695 ng·h/mL, a Vd/F [3, 8] of 4260 L and a half-life [3, 8] of 353 min. The AUC(0-t) [3, 9] was 3860 ng·h/mL, the Vd/F [3, 9] was 2340 L and the half-life [3, 9] was 522 min. It also gave an AUC(0-inf) [3, 10] of 11400 ng·h/mL, an AUC(0-t) [3, 10] of 11400 ng·h/mL and a Vd/F [3, 10] of 769 L. For the same molecule, the half-life [3, 10] was 304 min, the Tmax ([3]; human, oral, 200 mg, TAK-935 200 mg single dose, median, read-out: tmax) was 45 min and the Tmax ([3]; human, oral, 1200 mg, TAK-935 1200 mg single dose, median, read-out: tmax) was 30 min. For the same molecule, the Tmax ([3]; human, oral, 1200 mg, TAK-935, single dose 200, 600, 1200 mg, read-out: Tmax (median), range) was 30 to 45 min, the Cmax [3, 11] was 850 ng/mL and the AUC [3, 11] was 698 ng·h/mL. For the same molecule, the Cmax [3, 12] was 3280 ng/mL, the AUC [3, 12] was 3860 ng·h/mL and the Cmax [3, 13] was 10200 ng/mL. For the same molecule, the AUC [3, 13] was 11300 ng·h/mL, the “Insomnia, n participants” value [4] was 3 n and the “Lethargy, n participants” value [4] was 2 n. The “Seizure, n participants” value [4] was 3 n.
